Test results taken from ChEMBL document CHEMBL1921782, “Crystal structure-based virtual screening for fragment-like ligands of the human histamine H(1) receptor” (J Med Chem, 2011).

Assays:
Histamine H1 receptor = Histamine H1 receptor (Homo sapiens, UniProt P35367); assay: biochemical; type: cell-based, HEK293
Histamine H3 receptor = Histamine H3 receptor (Homo sapiens, UniProt Q9Y5N1); assay: Displacement of [3H]N-alpha-methylhistamine from human histamine H3 receptor expressed in HEK293 cells after 1 to 1.5 hrs by scintillation counting; type: cell-based
Histamine H4 receptor = Histamine H4 receptor (Homo sapiens, UniProt Q9H3N8); assay: Displacement of [3H]histamine from human histamine H4 receptor expressed in HEK293 cells after 1 to 1.5 hrs by scintillation counting; type: cell-based
Sequence of Histamine H4 receptor (Q9H3N8 whole entry): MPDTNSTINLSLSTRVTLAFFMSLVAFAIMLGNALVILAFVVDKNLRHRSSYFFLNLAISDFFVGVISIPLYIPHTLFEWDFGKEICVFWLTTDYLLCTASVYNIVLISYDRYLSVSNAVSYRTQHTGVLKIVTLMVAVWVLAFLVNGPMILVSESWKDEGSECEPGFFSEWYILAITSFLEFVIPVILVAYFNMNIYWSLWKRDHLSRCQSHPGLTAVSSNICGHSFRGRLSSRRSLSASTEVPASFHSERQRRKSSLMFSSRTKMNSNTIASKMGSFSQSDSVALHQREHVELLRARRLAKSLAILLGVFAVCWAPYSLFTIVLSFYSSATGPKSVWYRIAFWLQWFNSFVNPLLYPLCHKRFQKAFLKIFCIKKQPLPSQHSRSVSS

Sequence of Histamine H1 receptor (P35367 whole entry): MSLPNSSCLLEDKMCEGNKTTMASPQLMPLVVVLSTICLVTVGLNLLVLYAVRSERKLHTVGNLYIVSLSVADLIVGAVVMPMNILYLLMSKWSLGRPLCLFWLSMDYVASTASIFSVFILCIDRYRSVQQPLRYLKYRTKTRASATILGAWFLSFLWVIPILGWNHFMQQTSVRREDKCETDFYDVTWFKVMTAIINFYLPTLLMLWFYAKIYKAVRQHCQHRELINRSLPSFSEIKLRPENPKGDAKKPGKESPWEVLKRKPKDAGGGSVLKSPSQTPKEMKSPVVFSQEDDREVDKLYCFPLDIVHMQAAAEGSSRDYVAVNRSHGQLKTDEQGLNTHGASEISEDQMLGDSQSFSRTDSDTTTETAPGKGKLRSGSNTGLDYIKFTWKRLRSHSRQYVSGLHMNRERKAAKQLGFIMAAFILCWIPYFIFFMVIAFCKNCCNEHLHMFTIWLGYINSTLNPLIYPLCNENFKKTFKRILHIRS
Sequence of Histamine H3 receptor (Q9Y5N1 whole entry): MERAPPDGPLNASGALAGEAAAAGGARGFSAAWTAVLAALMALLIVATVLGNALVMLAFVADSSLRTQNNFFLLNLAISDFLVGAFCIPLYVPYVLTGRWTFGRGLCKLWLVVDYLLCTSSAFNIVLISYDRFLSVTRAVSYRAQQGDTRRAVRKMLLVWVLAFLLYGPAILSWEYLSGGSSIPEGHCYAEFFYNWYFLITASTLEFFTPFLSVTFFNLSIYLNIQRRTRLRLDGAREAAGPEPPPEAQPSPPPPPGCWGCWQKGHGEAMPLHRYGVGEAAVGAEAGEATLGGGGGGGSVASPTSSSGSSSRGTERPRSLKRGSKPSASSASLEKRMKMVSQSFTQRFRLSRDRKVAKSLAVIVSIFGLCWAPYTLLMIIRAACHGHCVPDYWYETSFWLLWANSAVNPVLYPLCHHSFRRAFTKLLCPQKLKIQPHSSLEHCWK

Row | Structure (SMILES) | Ki (Histamine H1 receptor; read-out: pKi (converted)) | also measured
1 | c1ccc(Cc2ccccc2OC2CCNCC2)cc1 | – | Ki (Histamine H1 receptor; read-out: Ki): 6 nM
2 | NC1=NC(c2ccccc2)n2c(nc3ccccc32)N1 (stereo not given) | 427 nM | –
3 | CN(C)CCSc1nc2ccccc2c2nnnn12 | 708 nM | –
4 | c1ccc2c(N3CCN(C4CCCC4)CC3)ncnc2c1 | 3240 nM | Ki (Histamine H3 receptor): 100 nM
5 | c1ccc2c(c1)nc1n(CCN3CCCCC3)cnn21 | 2630 nM | Ki (Histamine H3 receptor): 600 nM
6 | CN1CCN(c2nc(N3CCCC3)c3cnn(C)c3n2)CC1 | – | Ki (Histamine H4 receptor): 2900 nM; Ki (Histamine H1 receptor; read-out: Ki): 62 nM
7 | CNCC(O)CN1c2ccccc2C2CCCCC21 (stereo not given) | 2290 nM | –
8 | OC(CNC1CC1)Cn1c2ccccc2c2ccccc21 (stereo not given) | 6310 nM | Ki (Histamine H4 receptor): 2400 nM
9 | C=CCn1c(=N)n(CC(=O)c2ccccc2)c2ccccc21 | 10700 nM | –
10 | C1CCN(c2nc(N3CCCC3)nc(N3CCNCC3)n2)C1 | 1910 nM | –
11 | NCCc1ccccc1Oc1ccccc1 | 11000 nM | –
12 | CC(C)NCc1ccc(-c2ccccc2)o1 | 4570 nM | –
13 | OCCN1CCN(c2ncnc3sccc23)CC1 | 708 nM | –
14 | CNCCCOc1cccc2ccccc12 | 794 nM | –
15 | c1cnc2c(c1)cc([C@@H]1CCCO1)n2CCN1CCCCC1 | 1780 nM | –
16 | c1ccc2c(c1)n(CCN1CCCCC1)c1ncnn21 | 4170 nM | –
